Laboratory results from article PMC7395068, “The evolution of strategies to minimise the risk of human drug-induced liver injury (DILI) in drug discovery and development” (Archives of Toxicology, 2020).
Where two headings read alike, the source gives them in different places.

What was measured:
HepG2 cells [1] = conditions: cited from earlier work
[2] = cited from earlier work
[3] = tested on: THLE-Null and THLE-3A4 cells; conditions: In vitro Assay; ref Gustafsson 2014; cited from earlier work
[4] = cited from earlier work; remark: listed apart in the source
HepaRG spheroids = assay: Combined HCI (HCS) and cellular ATP 3D assay in HepaRG spheroids; conditions: for AC50 / minimal effective concentration: Homo sapiens
hLiMTs = assay: Combined HCI (HCS) and cellular ATP 3D assay in hLiMTs
HepG2 cells [5] = conditions: cited from earlier work; remark: listed apart in the source
HepG2 cells [6] = conditions: cited from earlier work; remark: listed apart in the source
PHH spheroids [7] = tested on: PHH spheroids; set-up: method as in Bell et al. 2016; conditions: 48-h exposure; ref Bell et al. 2016; cited from earlier work
PHH spheroids [8] = conditions: cited from earlier work
[9] = plasma free fraction; cited from earlier work
[10] = read-out: Human plasma Cmax; total plasma Cmax.tot, median of 9 literature references; cited from earlier work
[11] = Plasma free fraction (fu) and unbound Cmax (Cmax,u); format: in vitro ADME, human; conditions: unbound plasma Cmax
Procedure: The prediction of DILI severity was evaluated further using the 3D combined HCI assays using plasma-free fraction. The majority of fu values were obtained from literature, when unavailable in-house prediction was utilised. Unbound plasma Cmax concentrations (Cmax,u) were derived by multiplying total plasma Cmax with the corresponding free fraction (fu) for each compound.

rBsep = conditions: In vitro Assay; ref Dawson 2012; cited from earlier work
[12] = phase I clinical trials; ref Manning and Swartz 1995; McKenzie et al. 1995; cited from earlier work
PHH liver spheroid = tested on: PHH liver spheroid; set-up: method as in Foster et al. 2019; conditions: liver-chip of comparable sensitivity, ref Foster et al. 2019; cited from earlier work
[13] = In vitro Assay, ref Persson 2013
[14] = Microtissue model structural based (HCI), combined HCS and ATP, MEC < 25 × Cmax.tot cut-off

Structure (SMILES): O=c1[nH]c(=O)n([C@@H]2O[C@H](CO)[C@@H](O)[C@@H]2F)cc1I [fialuridine]
- Cluser analysis (HepG2 cells [1]; [13]): -VE
- Structural based (HCI) (HepG2 cells [1]; [13]): +VE
- DILI in vitro assay prediction, Persson (2013) (HepG2 cells [1]; Structural based (HCI), HepG2, ref Persson et al. 2013): -VE
- DILI severity category (Chen et al. [2016]) ([2]; LTKB DILIrank category, ref Chen et al. 2016): Most
- DILI severity category (Chen 2016) ([2]; human DILI classification, LTKB DILIrank, ref Chen et al. 2016): Most
- DILI severity category ([2]; human DILI severity, ref Chen et al.): Most
- DILI +VE (5-8), DILI -VE (-4) ([2]; ref Chen 2016): +VE
- DILI severity category ([2]; ref Chen 2016): vMost-DILI-Concern
- THLE-Null [3]: -VE
- THLE-Null/3A4 [3]: -VE
- Assigned DILI category ([4]; Chen et al. 2016 or literature alignment, ref Chen et al. 2016): 3
- In vivo DILI ([4]; ref Dawson 2012): +VE
- In vivo DILI ([4]; ref Gustafsson 2014): +VE
- In vivo DILI ([4]; ref O'Brien 2006): +VE
- In vivo DILI ([4]; ref Persson 2013): +VE
- In vivo DILI ([4]; ref Tolosa 2012): +VE
- In vivo DILI ([4]; ref Vorrink 2018): +VE
- HepaRG <25x Avg Cmax ATP (HepaRG spheroids; HepaRG, ATP endpoint, cut-off <25x Avg Cmax): +ve
- HepaRG <100x Avg Cmaxu ATP (HepaRG spheroids; HepaRG, ATP endpoint, cut-off <100x Avg Cmaxu): +ve (<100x Avg Cmaxu)
- HepaRG <25x Avg Cmax HCS (HepaRG spheroids; HepaRG, HCS endpoints, cut-off <25x Avg Cmax): +ve
- HepaRG <100x Avg Cmaxu HCS (HepaRG spheroids; HepaRG, HCS endpoints, cut-off <100x Avg Cmaxu): +ve (<100x Avg Cmaxu)
- HepaRG <25x Avg Cmax All (HepaRG spheroids; HepaRG, all endpoints (ATP and HCS), cut-off <25x Avg Cmax): +ve
- HepaRG Cmax max All (HepaRG spheroids; HepaRG, all endpoints, Cmax max used): +ve
- HepaRG Cmax min All (HepaRG spheroids; HepaRG, all endpoints, Cmax min used): +ve
- HepaRG <10 uM All (HepaRG spheroids; HepaRG, all endpoints, cut-off <10 uM): +ve (<10 uM)
- HepaRG <100x Avg Cmaxu All (HepaRG spheroids; HepaRG, all endpoints, cut-off <100x Avg Cmaxu): +ve (<100x Avg Cmaxu)
- AC50 (HepaRG spheroids; HepaRG, read-out: ATP endpoint AC50): 9.16 µM
- minimal effective concentration (HepaRG spheroids; HepaRG, read-out: ATP endpoint MEC): 1.28 µM
- AC50 (HepaRG spheroids; HepaRG, read-out: HCS endpoint AC50): 115 µM
- minimal effective concentration (HepaRG spheroids; HepaRG, read-out: HCS endpoint MEC): 5.78 µM
- DILI prediction HepaRG spheroids (HCS-MEC) (HepaRG spheroids; [14]): +VE (MEC < 25 × Cmax.tot cut-off)
- AC50 (hLiMTs; Homo sapiens, read-out: ATP endpoint AC50): 6.3 µM
- minimal effective concentration (hLiMTs; Homo sapiens, read-out: ATP endpoint MEC): 0.932 µM
- minimal effective concentration (hLiMTs; Homo sapiens, read-out: HCS endpoint MEC): 6.54 µM
- DILI prediction hLiMTs (HCS-MEC) (hLiMTs; [14]): +VE (MEC < 25 × Cmax.tot cut-off)
- hLiMTs <25x Avg Cmax ATP (hLiMTs; hLiMTs, ATP endpoint, cut-off <25x Avg Cmax): +ve
- hLiMTs <100x Avg Cmaxu ATP (hLiMTs; hLiMTs, ATP endpoint, cut-off <100x Avg Cmaxu): +ve (<100x Avg Cmaxu)
- hLiMTs <25x Avg Cmax HCS (hLiMTs; hLiMTs, HCS endpoints, cut-off <25x Avg Cmax): +ve
- hLiMTs <100x Avg Cmaxu HCS (hLiMTs; hLiMTs, HCS endpoints, cut-off <100x Avg Cmaxu): +ve (<100x Avg Cmaxu)
- hLiMTs <25x Avg Cmax All (hLiMTs; hLiMTs, all endpoints (ATP and HCS), cut-off <25x Avg Cmax): +ve
- hLiMTs Cmax max All (hLiMTs; hLiMTs, all endpoints, Cmax max used): +ve
- hLiMTs Cmax min All (hLiMTs; hLiMTs, all endpoints, Cmax min used): +ve
- hLiMTs <10 uM All (hLiMTs; hLiMTs, all endpoints, cut-off <10 uM): +ve (<10 uM)
- hLiMTs <100x Avg Cmaxu All (hLiMTs; hLiMTs, all endpoints, cut-off <100x Avg Cmaxu): +ve (<100x Avg Cmaxu)
- Structural based (HCI) (HepG2 cells [5]; In vitro Assay, ref O'Brien 2006): +VE
- DILI in vitro assay prediction, O'Brien (2006) (HepG2 cells [5]; Structural based (HCI), HepG2, ref O'Brien et al. 2006): +VE (lowest HCI endpoint IC50 (or in the absence of dose–response < 100 µM) < 30 × total human plasma exposure levels (Cmax.tot))
- Structural based (HCI) (HepG2 cells [6]; In vitro Assay, ref Tolosa 2012): +VE
- DILI in vitro assay prediction, Tolosa (2012) (HepG2 cells [6]; Structural based (HCI), HepG2, ref Tolosa et al. 2012): +VE
- toxicity in PHH spheroids (PHH spheroids [7]): no toxicity
- hLiMTs ATP <20 x Cmax (PHH spheroids [8]; In vitro Assay, ref Vorrink 2018): +VE (IC20 < 20 × Cmax.tot cut-off)
- DILI in vitro assay prediction, Vorrink (2018) (PHH spheroids [8]; PHH spheroids, ATP, 14 days, IC20 < 20 × Cmax.tot, ref Vorrink et al. 2018): +VE (IC20 < 20 × Cmax.tot cut-off)
- fu [9]: 0.360
- Cmax [10]: 820 nM
- Human plasma Cmax,u [11]: 295 nM
- Inhibition of rBsep cutoff<1& cmax u>.2 (rBsep): -VE
- Inhibition of rBsep cutoff<3 (rBsep): -VE
- clinical liver finding [12]: fatal hepatotoxicity
- detection in 3D microtissues (PHH liver spheroid): detected
